Format in all cases: cell-based
The subject of experiment [1] is Aspergillus brasiliensis ATCC #16404. The experiment in a line: Synergy test by MIC in 96 well microtiter plates, mold. Particulars: ATCC16404, 168 h, A. brasiliensis, contact time 7 days, 25° C., potato dextrose broth, read-out: MIC of compound acting alone (CA / CB). As for the experimental part: (§1) DMO with Pine oil was evaluated for synergy by determining the synergy index (S.I.) of the combination. Incubation temperature for bacteria was 30° C. and for fungi was 25° C. Synergy index was calculated based on minimum inhibitory concentrations (MIC) of two antimicrobial compounds (CA and CB) alone and in combinations (Ca and Cb). The test organisms were gram negative bacteria (Pseudomonas aeruginosa ATCC #15442), gram positive bacteria (Staphylococcus aureus ATCC #6538), and yeast (Candida albicans ATCC #10231) and mold (Aspergillus brasiliensis ATCC #16404). The test was carried out in 96 well microtiter plates. Contact time for the bacteria and yeast was 24 and 48 hours, and contact time for mold was 3 and 7 days. […] SI is calculated as follows: Ca/CA+Cb/CB=Synergy Index (“SI”) Wherein: • CA=concentration of compound A in ppm, acting alone, which produced an end point (MIC of Compound A). • Ca=concentration of compound A in ppm, in the mixture, which produced an end point. • CB=concentration of compound B in ppm, acting alone, which produced an end point (MIC of Compound B). • Cb=concentration of compound B in ppm, in the mixture, which produced an end point. When the sum of Ca/CA and Cb/CB is greater than one, antagonism is indicated. […] [table] [table] [table]

Experiment [2] deals with Candida albicans ATCC #10231. The experiment in a line: Synergy test by MIC in 96 well microtiter plates, yeast. Particulars: ATCC10231, C. albicans, 25° C., potato dextrose broth, read-out: MIC of compound acting alone (CA / CB). As to the method: as §1
The test system of experiment [3] is Staphylococcus aureus ATCC #6538. Briefly: Synergy test by MIC in 96 well microtiter plates, gram positive bacteria. Particulars: ATCC6538, S. aureus, 30° C., 10% tryptic soy broth, read-out: MIC of compound acting alone (CA / CB). As to the method:
as §1

Where two headings read alike, the source gives them in different places.

In the case of `CC1(C)COCN1` [DMO, 4,4-dimethyloxazolidine], the MIC turned out to be 500 µg/mL in experiment [1]; 1000 µg/mL in experiment [2] (contact time 24 hrs); 1000 µg/mL in experiment [2] (contact time 48 hrs); 75 µg/mL in experiment [3] (contact time 24 hrs); 75 µg/mL in experiment [3] (contact time 48 hrs).

These data come from patent publication US10709132B2, “Microbicidal composition” (DDP SPECIALTY ELECTRONIC MATERIALAS US, INC., priority 2015, dated 2020).
